Test system: P. falciparum 3D7 parasites
Assay: Metabolomic profiling of compound-treated parasites (LC/MS);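 on Metabolite data: 3-Phosphoglycerate: Log2 fold change in abundance versus untreated parasite controls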;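 on Metabolite data: Myo-Inositol: Log2 fold change in abundance versus untreated parasite controls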;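 on Metabolite data: N-Carbamoyl-L-Aspartate: Log2 fold change in abundance versus untreated parasite controls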;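 on Metabolite data: Nicotinate: Log2 fold change in abundance versus untreated parasite controls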
Assay type: cell-based
Set-up: Metabolite data: dTMP / Metabolite data: GMP / Metabolite data: S-Adenosyl-L-Homocysteine / Metabolite data: 1_3-Bisphosphoglyceric acid: scale not given here
Procedure, shortened: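 Magnetically purified trophozoites (1×10^8 parasites/mL) recovered 1 h in RPMI 1640, incubated a further 2.5 h, quenched in 90% methanol with labeled aspartate. Extracts analysed by reverse-phase C18 LC with negative-mode Orbitrap MS; peak areas normalized to internal standards, blank-subtracted and averaged by condition.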

Compound: O=C1C(O)=C([C@H]2CC[C@H](c3ccc(Cl)cc3)CC2)C(=O)c2ccccc21 [Atovaquone, reference compound]
- Metabolite data: 1_3-Bisphosphoglyceric acid: 0
- Metabolite data: 2_3-Diphosphoglyceric acid: -0.24
- Metabolite data: 3-Phosphoglycerate: 0
- Metabolite data: 4-Aminobutyrate: 0.16
- Metabolite data: 4-Phosphopantothenate: -0.34
- Metabolite data: 4-phosphopantetheine: 0
- Metabolite data: 5-aminopentanoic acid: 0
- Metabolite data: 5-phosphoribosyl-1-pyrophosphate: 0
- Metabolite data: 6-Phospho-D-Gluconate: 0.06
- Metabolite data: ADP-D-Glucose: 0.04
- Metabolite data: Acetyl-CoA: -0.68
- Metabolite data: Acetyllysine: -0.01
- Metabolite data: Aconitate: 0.31
- Metabolite data: CDP: -0.84
- Metabolite data: CDP-Ethanolamine: -0.15
- Metabolite data: CDP-choline: 0
- Metabolite data: CMP: -0.8
- Metabolite data: CTP: -0.85
- Metabolite data: Citrate/Isocitrate: -0.17
- Metabolite data: Cyclic-AMP: 0.13
- Metabolite data: Dihydroorotate: 4.84
- Metabolite data: FAD: 0.09
- Metabolite data: FMN: -1.11
- Metabolite data: Fructose-1,6-Bisphosphate: 0.15
- Metabolite data: Fumarate: 0.18
- Metabolite data: GDP: -0.12
- Metabolite data: GMP: 0.4
- Metabolite data: GTP: 0.09
- Metabolite data: Glucose-1/6-Phosphate: -0.03
- Metabolite data: Glutathione Disulfide: 0.11
- Metabolite data: Hexose: 0
- Metabolite data: Hydroxyisocaproic acid: 0
- Metabolite data: Indole: 0.06
- Metabolite data: Ketoleucine: 0
- Metabolite data: L-arginino-succinate: 0
- Metabolite data: Lactate: 0.09
- Metabolite data: Malate: 0.05
- Metabolite data: Myo-Inositol: -0.06
- Metabolite data: N-Acetyl-Glutamate: 0.13
- Metabolite data: N-Acetyl-L-Alanine: 0.22
- Metabolite data: N-Acetyl-L-Ornithine: -0.16
- Metabolite data: N-Carbamoyl-L-Aspartate: 4.58
- Metabolite data: NAD+: 0.08
- Metabolite data: NADH: 1.7
- Metabolite data: NADP+: -0.1
- Metabolite data: NADPH: 0.32
- Metabolite data: Nicotinate: -0.09
- Metabolite data: Octulose 8/1-Phosphate: -0.01
- Metabolite data: Orotate: 0.81
- Metabolite data: PD: 0
- Metabolite data: PE: 0
- Metabolite data: PEEK: 0
- Metabolite data: Phenol Red: 0
- Metabolite data: Pyroglutamic acid: 0.06
- Metabolite data: S-Adenosyl-L-Homocysteine: 0.32
- Metabolite data: S-methyl-5'-thioadenosine: -0.26
- Metabolite data: SD: 0
- Metabolite data: Sedoheptulose Bisphosphate: 0.01
- Metabolite data: UDP: -1.17
- Metabolite data: UDP-D-Glucose: -0.06
- Metabolite data: UDP-D-Glucuronate: -0.13
- Metabolite data: UDP-N-Acetyl-Glucosamine: -0.25
- Metabolite data: UMP: -0.68
- Metabolite data: UTP: -1.12
- Metabolite data: a-ketoglutarate: -0.04
- Metabolite data: acetyl-aspartate: 0
- Metabolite data: arginine: 0
- Metabolite data: asparagine: 0
- Metabolite data: aspartate: 0
- Metabolite data: biotin: 0
- Metabolite data: chlorpropamide: 0
- Metabolite data: coenzyme A: 0
- Metabolite data: dAMP: -0.09
- Metabolite data: dATP: 0.28
- Metabolite data: dCDP: -0.01
- Metabolite data: dCMP: -0.39
- Metabolite data: dCTP: -0.38
- Metabolite data: dGDP/ADP: 0
- Metabolite data: dGMP/AMP: -0.1
- Metabolite data: dGTP/ATP: 0
- Metabolite data: dTDP: -0.95
- Metabolite data: dTMP: -0.81
- Metabolite data: dTTP: -0.98
- Metabolite data: folate: 0
- Metabolite data: glucono-lactone: 0
- Metabolite data: glutamate: 0
- Metabolite data: glutamine: 0
- Metabolite data: glutathione: 0
- Metabolite data: histidine: 0
- Metabolite data: hydroxyproline/Aminolevulinate: 0
- Metabolite data: isoleucine: 0
- Metabolite data: leucine: 0
- Metabolite data: maleic acid: 0
- Metabolite data: methionine: 0
- Metabolite data: nicotinamide mononucleotide: 0
- Metabolite data: orotidine-5'-phosphate: 0

Reference: PMC8878317, “Chemogenomics identifies acetyl-coenzyme A synthetase as a target for malaria treatment and prevention” (Cell Chemical Biology, 2022)
